Assay: recombinant UMI read abundance after kanamycin selection (control-corrected) (log10(CPM+1)); higher = more efficient recombination; extreme values may be limits of the assay; sequences stand for … in AGTGCAGAGAAAATCGGCCAGTTTTCTCTGCCTGCAGTCCGCATGCCGTGGGACCCCTTGGGTTCTAACCTGTTGCCTAGATTTATGCAGCGGACTGCCTTTCTCCCAAAGTGATAAACCGG…AGGTTGGTTTCACT; site = the 11-nt donor
Summary of the method: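 Values are reported as log10(CPM+1), obtained by converting sequencing counts to CPM, averaging replicates and scaling by control-derived factors. The counts came from recombinant UMIs amplified by PCR across the donor–target junction. These UMIs came from a pooled Escherichia coli screen of donor and donor-binding-loop pairs for the IS621 bridge recombinase, plated with IPTG (0.07 mM) plus kanamycin or left unselected, in two replicates each.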
With “ATCTGTACATGGACCGGTTTTCCCGGTAATCCGTATTTGAC (site ATCTTTACTGT)” the “recombinant UMI read abundance (log10)” value was 0.
For “ATCTGTCCATGGACCGGTTTTCCCGGTAATCCGTATTTGAT (site ATCTGTCCTAT)”, the “recombinant UMI read abundance (log10)” value was 0.0326.
In the case of “ATGAAGGCATGGACCGGTTTTCCCGGTAATCCGTATTTGCA (site AGGAAGACTTG)”, the “recombinant UMI read abundance (log10)” value is reported as 0.763.
For “ATGAAGGCATGGACCGGTTTTCCCGGTAATCCGTATTTGCA (site ATGAAGGCTTG)”, the “recombinant UMI read abundance (log10)” value was 2.91.
For “ATGACACCATGGACCGGTTTTCCCGGTAATCCGTATTTGGT (site ATGACACCTAC)”, the “recombinant UMI read abundance (log10)” value was 0.0397.
For “ATGATCCCATGGACCGGTTTTCCCGGTAATCCGTATTTGCC (site ATGATCCCTGG)”, the “recombinant UMI read abundance (log10)” value was 0.
With “ATGCACGCATGGACCGGTTTTCCCGGTAATCCGTATTTGGG (site AAGCACGCTCC)” the “recombinant UMI read abundance (log10)” value was 0.017.
With “ATGCACGCATGGACCGGTTTTCCCGGTAATCCGTATTTGGG (site ACGCACGCTCC)” the “recombinant UMI read abundance (log10)” value was 0.0179.
In the case of “ATGCACGCATGGACCGGTTTTCCCGGTAATCCGTATTTGGG (site AGGCACGCTCC)”, the “recombinant UMI read abundance (log10)” value is reported as 0.0274.
In the case of “ATGCACGCATGGACCGGTTTTCCCGGTAATCCGTATTTGGG (site ATGCACGCTCC)”, the “recombinant UMI read abundance (log10)” value is reported as 0.239.
With “ATGCAGCCATGGACCGGTTTTCCCGGTAATCCGTATTTGAG (site ATGCAGCCTCT)” the “recombinant UMI read abundance (log10)” value was 0.00247.
With “ATGCCCGCATGGACCGGTTTTCCCGGTAATCCGTATTTGCA (site ATGCCCGCTTG)” the “recombinant UMI read abundance (log10)” value was 2.01.
With “ATGCCGACATGGACCGGTTTTCCCGGTAATCCGTATTTGCA (site ATGCCGACTTG)” the “recombinant UMI read abundance (log10)” value was 1.91.
In the case of “ATGCGAGCATGGACCGGTTTTCCCGGTAATCCGTATTTGCT (site ATGCGAGCTAG)”, the “recombinant UMI read abundance (log10)” value is reported as 2.5.
For “ATGCTTGCATGGACCGGTTTTCCCGGTAATCCGTATTTGCT (site ATGCTTGCTAG)”, the “recombinant UMI read abundance (log10)” value was 0.679.
For “ATGGAAACATGGACCGGTTTTCCCGGTAATCCGTATTTGCA (site ATGGAAACTTG)”, the “recombinant UMI read abundance (log10)” value was 2.32.
In the case of “ATGGAAACATGGACCGGTTTTCCCGGTAATCCGTATTTGCA (site CTGGAAACTTG)”, the “recombinant UMI read abundance (log10)” value is reported as 1.6.
For “ATGGAAACATGGACCGGTTTTCCCGGTAATCCGTATTTGCA (site GTGGAAACTTG)”, the “recombinant UMI read abundance (log10)” value was 0.
With “ATGGAAACATGGACCGGTTTTCCCGGTAATCCGTATTTGCA (site TTGGAAACTTG)” the “recombinant UMI read abundance (log10)” value was 0.684.
In the case of “ATGGCATCATGGACCGGTTTTCCCGGTAATCCGTATTTGCG (site ATGGCATCTCG)”, the “recombinant UMI read abundance (log10)” value is reported as 2.06.
In the case of “ATGGCATCATGGACCGGTTTTCCCGGTAATCCGTATTTGCT (site ATGGCATCTAG)”, the “recombinant UMI read abundance (log10)” value is reported as 1.83.
In the case of “ATGGCCGCATGGACCGGTTTTCCCGGTAATCCGTATTTGGC (site ATGGCCGCTGC)”, the “recombinant UMI read abundance (log10)” value is reported as 2.53.
For “ATGGTCCCATGGACCGGTTTTCCCGGTAATCCGTATTTGAC (site ATGGTCCCTGT)”, the “recombinant UMI read abundance (log10)” value was 1.87.
In the case of “ATGGTCGCATGGACCGGTTTTCCCGGTAATCCGTATTTGAC (site ATGGTCGCTGT)”, the “recombinant UMI read abundance (log10)” value is reported as 3.13.
In the case of “ATGTACACATGGACCGGTTTTCCCGGTAATCCGTATTTGAG (site ATGTACACTCT)”, the “recombinant UMI read abundance (log10)” value is reported as 1.6.
With “ATGTAGGCATGGACCGGTTTTCCCGGTAATCCGTATTTGGT (site ATGTAGGCTAC)” the “recombinant UMI read abundance (log10)” value was 1.27.
With “ATGTAGGCATGGACCGGTTTTCCCGGTAATCCGTATTTGGT (site ATGTAGGCTCC)” the “recombinant UMI read abundance (log10)” value was 0.0125.
With “ATGTAGGCATGGACCGGTTTTCCCGGTAATCCGTATTTGGT (site ATGTAGGCTGC)” the “recombinant UMI read abundance (log10)” value was 1.73.
For “ATGTAGGCATGGACCGGTTTTCCCGGTAATCCGTATTTGGT (site ATGTAGGCTTC)”, the “recombinant UMI read abundance (log10)” value was 0.0176.
For “ATGTCGCCATGGACCGGTTTTCCCGGTAATCCGTATTTGCC (site ATGTCGCCTGG)”, the “recombinant UMI read abundance (log10)” value was 0.
With “ATGTCGGCATGGACCGGTTTTCCCGGTAATCCGTATTTGTC (site ATGTCGGCTGA)” the “recombinant UMI read abundance (log10)” value was 2.23.
In the case of “ATGTGGACATGGACCGGTTTTCCCGGTAATCCGTATTTGAC (site ATGTGGACTGT)”, the “recombinant UMI read abundance (log10)” value is reported as 2.94.
In the case of “ATGTGGGCATGGACCGGTTTTCCCGGTAATCCGTATTTGGC (site ATGTAGGCTGC)”, the “recombinant UMI read abundance (log10)” value is reported as 2.78.
For “ATGTGGGCATGGACCGGTTTTCCCGGTAATCCGTATTTGGC (site ATGTCGGCTGC)”, the “recombinant UMI read abundance (log10)” value was 0.

Reference: the supplement of paper PMC11208160
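Note: IS621 bridge recombinase in Escherichia coli cells against a fixed T5 target plasmid.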
